Measured values taken from patent US20240148821A1, “PHARMACEUTICAL USE OF CYCLIC PEPTIDE COMPOUND” (CHUGAI SEIYAKU KABUSHIKI KAISHA, priority 2021, published 2024).
Numbered stars: 1 amine (or outer) side, 2 acyl side, 3 side chain; on linkers, the order of the positions; unused ones are H or OH. Bridge positions count the residues as written; N and C are the ends. Square brackets hold non-standard residues; d marks the D form. Peptide text beside a SMILES is read from it. * marks the point of attachment. hPhe(3-Cl-4-CF3) = N[C@@H](CCc1ccc(C(F)(F)F)c(Cl)c1)C(=O)O; hPhe(3-F,4-CF3) = N[C@@H](CCc1ccc(C(F)(F)F)c(F)c1)C(=O)O; NMePhe(4-CF3) = CN[C@@H](Cc1ccc(C(F)(F)F)cc1)C(=O)O; NMePhe(4-Me) = CN[C@@H](Cc1ccc(C)cc1)C(=O)O; NMedβ3hAla = C[C@H](CC(=O)[*:2])N(C)[*:1]; NMeGly(cPent) = CN[C@H](C(=O)O)C1CCCC1; NMeCha = CN[C@@H](CC1CCCCC1)C(=O)O; NMehLeu = CN[C@@H](CCC(C)C)C(=O)O; Hyp = O=C(O)[C@@H]1C[C@@H](O)CN1; NMeI = CC[C@H](C)[C@H](NC)C(=O)O; NMeD = CN[C@@H](CC(=O)O)C(=O)O; NMeL = CN[C@@H](CC(C)C)C(=O)O; NMeV = CN[C@H](C(=O)O)C(C)C; Trifluoroethyl = FC(F)(F)C*; NMeS = CN[C@@H](CO)C(=O)O; Morpholide = C1CN(*)CCO1; NMeA = CN[C@@H](C)C(=O)O; Piperidide = C1CCN(*)CC1; dNMeA = CN[C@H](C)C(=O)O; Ac5c = NC1(C(=O)O)CCCC1; Aze = O=C(O)[C@@H]1CCN1; Sar = CNCC(=O)O; Propyl = CCC*

Assays:
[1] = target: protein-protein interaction between Kras and SOS1 (biotin-tagged human Kras loaded with GDP, His-tagged human SOS1) (Homo sapiens (Human), UniProt P01116, G12D); assay: Protein-protein interaction inhibition between Kras and SOS1 (KrasG12D-SOS PPI) using AlphaScreen; assay type: biochemical; conditions: AlphaScreen; biotin-tagged human Kras loaded with GDP, His-tagged human SOS1; read-out: KRAS G12D-SOS PPI IC50;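 also: kras produced in E. coli, Ni-coupled donor beads and streptavidin acceptor beads, excitation 680 nm with emission detected at 520–620 nm via singlet oxygen transfer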
[2] = system: Human pancreatic cancer cell line AsPC-1 (G12D mutation Kras); assay: AsPC-1 cell growth inhibition (AsPC-1 CGI); assay type: cell-based; conditions: read-out: AsPC-1 cell growth inhibition, 50% growth inhibitory concentration (IC50 value); 96 hours, CellTiter-Glo, values classified in ranges
Protocol: Test compounds were serially dilated with dimethyl sulfoxide, and 200 nL was then dispensed to a U-bottom 96-well plate using Labcyte Echo. […] The cell suspension was dispensed to a. plate containing a test compound at 100 μL per well and incubated at 37° C. in a 5% carbon dioxide gas incubator. 96 hours later, 80 μL of CellTiter-Glo (Promega) was added to each well and fluorescence was measured.

Compound	IC50 [1] [nM]	IC50 [2] [nM]
CCO[C@@H]1C[C@H]2C(=O)NC3(CCCC3)C(=O)N(C)[C@@H]([C@@H](C)CC)C(=O)N(C)[C@H](C)CC(=O)N(C)[C@@H](CC(C)C)C(=O)N[C@@H]([C@@H](C)CC)C(=O)N(C)[C@@H](C)C(=O)N3CC[C@H]3C(=O)N(C)[C@@H](Cc3ccc(C(F)(F)F)cc3)C(=O)N(C)CC(=O)N[C@@H](CCc3ccc(C(F)(F)F)c(Cl)c3)C(=O)N2C1 [Compound 301] (cyclo([Ac5c][NMeI][NMedβ3hAla][NMeL]I[NMeA][Aze][NMePhe(4-CF3)][Sar][hPhe(3-Cl-4-CF3)][Hyp](Et)))	0.74	≤ 20
CC[C@H](C)[C@@H]1NC(=O)[C@H](CC(C)C)N(C)C(=O)C[C@@H](C(=O)N2CCOCC2)N(C)C(=O)[C@H](C2CCCC2)N(C)C(=O)C2(CCCC2)NC(=O)[C@@H]2CCCN2C(=O)[C@H](CCc2ccc(C(F)(F)F)c(Cl)c2)NC(=O)CN(C)C(=O)[C@H](C2CCCC2)N(C)C(=O)[C@@H]2CCN2C(=O)[C@H](C)N(C)C1=O [Compound 302] ([NMeL]I[NMeA][Aze][NMeGly(cPent)][Sar][hPhe(3-Cl-4-CF3)]P[Ac5c][NMeGly(cPent)][NMeD]-Morpholide; lactam N-11)	0.68	≤ 20
CC(C)C[C@H]1C(=O)N[C@@H](COCC(F)(F)F)C(=O)N(C)[C@@H](C)C(=O)N2CC[C@H]2C(=O)N(C)[C@@H](CC2CCCCC2)C(=O)N(C)CC(=O)N[C@@H](CCc2ccc(C(F)(F)F)c(Cl)c2)C(=O)N2CCC[C@H]2C(=O)NC2(CCCC2)C(=O)N(C)[C@@H](C(C)C)C(=O)N(C)[C@H](C(=O)N2CCCCC2)CC(=O)N1C [Compound 304] ([NMeL]S(Trifluoroethyl)[NMeA][Aze][NMeCha][Sar][hPhe(3-Cl-4-CF3)]P[Ac5c][NMeV][NMeD]-Piperidide; lactam N-11)	87	> 500
CC[C@H](C)[C@@H]1NC(=O)[C@H](C)N(C)C(=O)C[C@@H](C(=O)N2CCCCC2)N(C)C(=O)[C@H](C(C)C)N(C)C(=O)C2(CCCC2)NC(=O)[C@@H]2CCCN2C(=O)[C@H](CCc2ccc(C(F)(F)F)c(Cl)c2)NC(=O)[C@@H](C)N(C)C(=O)[C@H](CC2CCCCC2)N(C)C(=O)[C@@H]2CCCN2C(=O)CN(C)C1=O [Compound 307] ([NMeA]I[Sar]P[NMeCha][dNMeA][hPhe(3-Cl-4-CF3)]P[Ac5c][NMeV][NMeD]-Piperidide; lactam N-11)	4.4	> 500
CC[C@H](C)[C@@H]1NC(=O)[C@H](CCC(C)C)N(C)C(=O)C[C@@H](C(=O)N(C)C)N(C)C(=O)[C@H]([C@@H](C)CC)N(C)C(=O)C2(CCCC2)NC(=O)[C@@H]2CCCN2C(=O)[C@H](CCc2ccc(C(F)(F)F)c(Cl)c2)NC(=O)CN(C)C(=O)[C@H](Cc2ccc(C)cc2)N(C)C(=O)[C@@H]2CCN2C(=O)[C@H](C)NC1=O [Compound 308] ([NMehLeu]IA[Aze][NMePhe(4-Me)][Sar][hPhe(3-Cl-4-CF3)]P[Ac5c][NMeI][NMeD]-NMe2; lactam N-11)	0.93	≤ 20
CC[C@H](C)[C@@H]1NC(=O)[C@H](CC(C)C)N(C)C(=O)C[C@@H](C(=O)N(C)C)N(C)C(=O)[C@H](C2CCCC2)N(C)C(=O)[C@H](C)NC(=O)[C@@H]2CCCN2C(=O)[C@H](CCc2ccc(C(F)(F)F)c(Cl)c2)NC(=O)CN(C)C(=O)[C@H](CC2CCCCC2)N(C)C(=O)[C@@H]2CCN2C(=O)[C@H](C)N(C)C1=O [Compound 314] ([NMeL]I[NMeA][Aze][NMeCha][Sar][hPhe(3-Cl-4-CF3)]PA[NMeGly(cPent)][NMeD]-NMe2; lactam N-11)	2.6	> 500
CCCOC[C@H]1C(=O)N(C)CC(=O)N[C@@H](CCc2ccc(C(F)(F)F)c(F)c2)C(=O)N2CCC[C@H]2C(=O)NC2(CCCC2)C(=O)N(C)[C@@H]([C@@H](C)CC)C(=O)N(C)[C@H](C(=O)N(C)C)CC(=O)N(C)[C@@H](CC(C)C)C(=O)N[C@@H]([C@@H](C)CC)C(=O)N(C)[C@@H](C)C(=O)N2CC[C@H]2C(=O)N1C [Compound 316] ([NMeL]I[NMeA][Aze][NMeS](Propyl)[Sar][hPhe(3-F,4-CF3)]P[Ac5c][NMeI][NMeD]-NMe2; lactam N-11)	3.3	≤ 20
